Experimental data taken from patent US10765745B2, “Multifunctional nanoparticle systems and methods for cancer diagnosis and combination therapy” (BOARD OF REGENTS, THE UNIVERSITY OF TEXAS SYSTEM, priority 2015, dated 2020).

How the values were obtained:
[1] = tested on: folate receptors on H460 lung cancer cells; assay: Folic acid binding, Resonant Sensors Bioassay (peak shift); conditions: 0-15 μM, 3 hours
Protocol: (§1) The binding of folic acid to folate receptors was studied using Resonant Sensors Bioassay system (e.g., available from Resonant Sensors Inc. (RSI), located in Arlington, Tex.). A549 and H460 lung cancer cells as well as AT1 cells were seeded at a density of 10,000 cells/well in RSI sensor 96-well plates, which were incubated at […] for 24 hours to allow cell attachment. For folic acid binding efficiency studies, the cells were incubated with folic acid at varying concentrations (i.e., 0, 0.1, 1, 5, 10, 15 μM) for 3 hours in the RSI system and peak shift with cell binding over time was studied.

[2] = tested on: folate receptors on A549 lung cancer cells; assay: as above; conditions: 0-15 μM, 3 hours
Protocol: as §1

[3] = tested on: human dermal fibroblasts (HDFs); assay: 24-hour cytocompatibility (MTS and Picogreen dsDNA); assay type: cell-based; conditions: 10 μM
Protocol: (§2) Human dermal fibroblasts (HDFs) and AT1 cells were seeded at a density of 5000 cells/well in a 96 well plate and allowed to attach at 37° C. and 5% CO2 for 24 hours. […] Following incubation, the cells were washed with 1× sterile PBS and cell viability was assessed using MTS and Picogreen dsDNA assays (e.g., available from Life Technologies, located in Grand Island, N.Y.) according to manufacturer's instructions. MTS assay measures the percentage of cells alive in each well compared to the controls. These findings were validated using Picogreen dsDNA assay which calculates the amount of total cell DNA present in each well compared to the control.

[4] = tested on: AT1 cells; assay: as above; assay type: cell-based, human; conditions: 10 μM
Protocol: as §2

[5] = tested on: folate receptors on AT1 cells; assay: Folic acid binding, Resonant Sensors Bioassay (peak shift); set-up: species or system human; conditions: 0-15 μM, 3 hours
Protocol: as §1

[6] = tested on: human AT1 cells; assay: Cell activation study: intracellular ROS production (H2DCFDA); assay type: cell-based; conditions: positive control, 10 μg/ml
Protocol: A cell activation study was conducted to determine whether NP uptake causes oxidative stress in the cells in vitro. For example, human AT1 cells were seeded in tissue culture plates and incubated overnight as described earlier. The next day, cells were exposed to two different concentrations of each NP (250 μg/ml and 1000 μg/ml) and incubated for another 24 hours. Cells exposed to 10 μg/ml lipopolysaccharide (LPS) were considered as a positive control while cells exposed to media only served as the negative control. To detect the Intracellular Reactive Oxygen Species (ROS) production on NP exposure, cells were then washed thrice with PBS and incubated with 5 μM of 2′,7′-dichlorodihydrofluorescein diacetate (H2DCFDA) solution in PBS for 30 minutes. The cells were then washed again with PBS and fluorescence was measured at λex of 485 nm and […] using a spectrophotometer.
(§3) To study cytokine production, the concentration of interleukin-1 alpha (IL-1∞), interleukin-1 beta (IL-1β), interleukins 2, 4, 6, 8, 10, 12, 10A, and tumor necrosis factor-alpha (TNF-α) in the medium was measured using Multi-Analyte ELISAArray Kit (SA Biosciences, Frederick, Md.) according to the manufacturer's directions.

[7] = tested on: AT1 cells; assay: Cell activation study: cytokine ELISA; assay type: cell-based, human; conditions: 24 hours; MDNPs at 1 mg/mL; LPS positive control
Protocol: as §3
The cells stimulated using LPS (positive control) produced 0.25 ng/ml IL-6, 1.27 ng/ml IL-8, 0.24 ng/ml IL-10 and 0.11 ng/ml TNF-α inflammatory cytokines.

Row | Molecule | peak shift [1] | peak shift [2] | cytocompatibility (MTS) [3] | cytocompatibility (MTS) [4] | peak shift [5] | ROS production, % of the control [6] [%] | IL-6 produced [7] [ng/mL] | IL-8 produced [7] [ng/mL] | IL-10 produced [7] [ng/mL] | TNF-α produced [7] [ng/mL]
1 | Nc1nc2ncc(CNc3ccc(C(=O)N[C@@H](CCC(=O)O)C(=O)O)cc3)nc2c(=O)[nH]1 [folic acid] | comparatively larger peak shift | increase in peak shift | non-toxic | non-toxic | no dose-dependent increase in peak shift |  |  |  |  | 
2 | lipopolysaccharide [LPS] |  |  |  |  |  | 425 | 0.25 | 1.27 | 0.24 | 0.11
